# Laboratory results published in patent US10308637B2 (LifeSci Pharmaceuticals, Inc., priority 2015, dated 2019).
# Assay: Contact Assay (percentage inhibition from fluorescence intensity)
# Type: biochemical
# Procedure: The percentage inhibition was calculated using the following equation:
# [formula] where, Mean(BG) is the average value of the fluorescence intensity of the background wells and Mean(PC) is the average value of the fluorescence intensity of the positive control wells.
# Table 4 provides the EC50 values of various compounds disclosed herein.
row,EC50 [nM],SMILES
1,≤ 100,"Cc1cc(N)nc(C)c1CNC(=O)c1ccnc(Cc2cc(Cl)c3ncc(Cl)cc3c2)c1 [Example 100, N-((6-amino-2,4-dimethylpyridin-3-yl)methyl)-2-((3,8-dichloroquinolin-6-yl)methyl)isonicotinamide]"
2,≤ 100,"Cc1nc(N)ccc1CNC(=O)c1ccnc(Cc2cc(Cl)c3ncc(Cl)cc3c2)c1 [Example 101, N-((6-amino-2-methylpyridin-3-yl)methyl)-2-((3,8-dichloroquinolin-6-yl)methyl)isonicotinamide]"
3,100 to 1000,"Cc1cc(N)nc(C)c1CNC(=O)c1ccnc(Cc2ccc3ncc(Cl)cc3c2F)c1 [Example 102, N-((6-amino-2,4-dimethylpyridin-3-yl)methyl)-2-((3-chloro-5-fluoroquinolin-6-yl)methyl)isonicotinamide]"
4,≤ 100,"Cc1ccc2ncc(Cc3cc(C(=O)NCc4c(C)cc(N)nc4C)ccn3)cc2c1 [Example 114, N-((6-amino-2,4-dimethylpyridin-3-yl)methyl)-2-((6-methylquinolin-3-yl)methyl)isonicotinamide]"
5,≤ 100,"Nc1nccc2cc(CNC(=O)c3ccnc(Cc4cnc5ccc(F)cc5c4)c3)ccc12 [Example 118, N-((1-aminoisoquinolin-6-yl)methyl)-2-((6-fluoroquinolin-3-yl)methyl)isonicotinamide]"
6,≤ 100,"Cc1cnc2ccc(Cc3cc(C(=O)NCc4c(C)cc(N)nc4C)ccn3)cc2c1 [Example 144, N-((6-amino-2,4-dimethylpyridin-3-yl)methyl)-2-((3-methylquinolin-6-yl)methyl)isonicotinamide]"
7,≤ 100,"Cc1cc2cc(Cc3cc(C(=O)NCc4c(C)cc(N)nc4C)ccn3)ccc2cn1 [Example 145, N-((6-amino-2,4-dimethylpyridin-3-yl)methyl)-2-((3-methylisoquinolin-6-yl)methyl)isonicotinamide]"
8,≤ 100,"Cc1cc(N)nc(C)c1CNC(=O)c1ccnc(Cc2cc3cc(Cl)cnc3cn2)c1 [Example 148, N-((6-amino-2,4-dimethylpyridin-3-yl)methyl)-2-((3-chloro-1,7-naphthyridin-6-yl)methyl)isonicotinamide]"
9,100 to 1000,"Cc1cc(N)nc(C)c1CNC(=O)c1ccnc(Cc2cnc3[nH]c(C(F)(F)F)cc3c2)c1 [Example 152, N-((6-amino-2,4-dimethylpyridin-3-yl)methyl)-2-((2-(trifluoromethyl)-1H-pyrrolo[2,3-b]pyridin-5-yl)methyl)isonicotinamide]"
10,≤ 100,"Cc1cc(N)nc(C)c1CNC(=O)c1ccnc(Cc2cc3cc(Cl)cn3cn2)c1 [Example 153, N-((6-amino-2,4-dimethylpyridin-3-yl)methyl)-2-((6-chloropyrrolo[1,2-c]pyrimidin-3-yl)methyl)isonicotinamide]"
11,100 to 1000,"Cc1ccn2cnc(CNC(=O)c3ccnc(Cc4ccc5ncc(Cl)cc5c4)c3)c2c1 [Example 156, 2-((3-chloroquinolin-6-yl)methyl)-N-((7-methylimidazo [1,5-a]pyridin-1-yl)methyl)isonicotinamide]"
12,100 to 1000,"Cc1cc(CN)nc(C)c1CNC(=O)c1ccnc(Cc2ccc3ncc(Cl)cc3c2)c1 [Example 171, N-((6-(aminomethyl)-2,4-dimethylpyridin-3-yl)methyl)-2-((3-chloroquinolin-6-yl)methyl)isonicotinamide]"
13,≤ 100,"Cc1cc(CN)nc(C)c1CNC(=O)c1ccnc(Cc2ccc3ncc(C(F)(F)F)cc3c2)c1 [Example 172, N-((6-(aminomethyl)-2,4-dimethylpyridin-3-yl)methyl)-2-((3-(trifluoromethyl)quinolin-6-yl)methyl)isonicotinamide]"
14,100 to 1000,"Cc1nc2c(c(C)c1CNC(=O)c1ccnc(Cc3ccc4ncc(C(F)(F)F)cc4c3)c1)CCN2 [Example 176, N-((4,6-dimethyl-2,3-dihydro-1H-pyrrolo[2,3-b]pyridin-5-yl)methyl)-2-((3-(trifluoromethyl)quinolin-6-yl)methyl)isonicotinamide]"
15,≤ 100,"Cc1c(CNC(=O)c2ccnc(Cc3ccc4ncc(Cl)cc4c3)c2)ccc2c(N)nccc12 [Example 177, N-((1-amino-5-methylisoquinolin-6-yl)methyl)-2-((3-chloroquinolin-6-yl)methyl)isonicotinamide]"
16,≤ 100,"Nc1nccc2c(F)c(CNC(=O)c3ccnc(Cc4ccc5ncc(Cl)cc5c4)c3)ccc12 [Example 178, N-((1-amino-5-fluoroisoquinolin-6-yl)methyl)-2-((3-chloroquinolin-6-yl)methyl)isonicotinamide]"
17,≤ 100,"Nc1nccc2cc(CNC(=O)c3ccnc(Cc4ccc5ncc(Cl)cc5c4)c3)ccc12 [Example 179, N-((1-aminoisoquinolin-6-yl)methyl)-2-((3-chloroquinolin-6-yl)methyl)isonicotinamide]"
18,100 to 1000,"Nc1nccc2cc(CNC(=O)c3ccnc(Cc4ccc5ncc(Cl)cc5c4)c3)c(F)cc12 [Example 180, N-((1-amino-7-fluoroisoquinolin-6-yl)methyl)-2-((3-chloroquinolin-6-yl)methyl)isonicotinamide]"
19,≤ 100,"Cc1cc2c(N)nccc2cc1CNC(=O)c1ccnc(Cc2ccc3ncc(Cl)cc3c2)c1 [Example 181, N-((1-amino-7-methylisoquinolin-6-yl)methyl)-2-((3-chloroquinolin-6-yl)methyl)isonicotinamide]"
20,100 to 1000,"Nc1nccc2cc(CNC(=O)c3ccnc(Cc4ccc5ncc(C(F)(F)F)cc5c4)c3)c(F)cc12 [Example 182, N-((1-amino-7-fluoroisoquinolin-6-yl)methyl)-2-((3-(trifluoromethyl)quinolin-6-yl)methyl)isonicotinamide]"
21,≤ 100,"Cc1c(CNC(=O)c2ccnc(Cc3ccc4ncc(C(F)(F)F)cc4c3)c2)ccc2c(N)nccc12 [Example 184, N-((1-amino-5-methylisoquinolin-6-yl)methyl)-2-((3-(trifluoromethyl)quinolin-6-yl)methyl)isonicotinamide]"
22,≤ 100,"Nc1nc(C(F)(F)F)n2cc(CNC(=O)c3ccnc(Cc4ccc5ncc(Cl)cc5c4)c3)ccc12 [Example 186, N-((1-amino-3-(trifluoromethyl)imidazo[1,5-a]pyridin-6-yl)methyl)-2-((3-chloroquinolin-6-yl)methyl)isonicotinamide]"
23,≤ 100,"Cc1cc(N)nc(C)c1CNC(=O)c1ccnc(Cc2cnc3ncc(Cl)cc3c2)c1 [Example 204, N-((6-amino-2,4-dimethylpyridin-3-yl)methyl)-2-((6-chloro-1,8-naphthyridin-3-yl)methyl)isonicotinamide]"
24,≤ 100,"Cc1cc(N)nc(C)c1CNC(=O)c1cc(Cc2ccc3ncc(Cl)cc3c2)nc(C(N)=O)c1 [Example 208, N^4-((6-amino-2,4-dimethylpyridin-3-yl)methyl)-6-((3-chloroquinolin-6-yl)methyl)pyridine-2,4-dicarboxamide]"
25,≤ 100,"Cc1cc(N)nc(C)c1CNC(=O)c1cc(Cc2ccc3ncc(Cl)cc3c2)nc(C(C)(C)O)c1 [Example 210, N-((6-amino-2,4-dimethylpyridin-3-yl)methyl)-2-((3-chloroquinolin-6-yl)methyl)-6-(2-hydroxypropan-2-yl)isonicotinamide]"
26,≤ 100,"Cc1cc(N)nc(C)c1CNC(=O)c1cc(CN)nc(Cc2ccc3ncc(Cl)cc3c2)c1 [Example 211, N-((6-amino-2,4-dimethylpyridin-3-yl)methyl)-2-(aminomethyl)-6-((3-chloroquinolin-6-yl)methyl)isonicotinamide]"
27,≤ 100,"Cc1cc(N)nc(C)c1CNC(=O)c1cc(CC#N)nc(Cc2ccc3ncc(Cl)cc3c2)c1 [Example 213, N-((6-amino-2,4-dimethylpyridin-3-yl)methyl)-2-((3-chloroquinolin-6-yl)methyl)-6-(cyanomethyl)isonicotinamide]"

row,SMILES,EC50 [nM]
1,"Cc1cc(N)nc(C)c1CNC(=O)c1ccnc(Cc2ccc3c(cc(Cl)c[n+]3[O-])c2)c1 [Example 99, 6-((4-(((6-amino-2,4-dimethylpyridin-3-yl)methyl)carbamoyl)pyridin-2-yl)methyl)-3-chloroquinoline 1-oxide]",≤ 100
2,"Cc1cc(C(=O)NCc2c(C)cc(N)nc2C)cc(Cc2ccc3ncc(Cl)cc3c2)n1 [Example 104, N-((6-amino-2,4-dimethylpyridin-3-yl)methyl)-2-((3-chloroquinolin-6-yl)methyl)-6-methylisonicotinamide]",≤ 100
3,"Cc1ccc2cc(Cc3cc(C(=O)NCc4c(C)cc(N)nc4C)ccn3)ccc2n1 [Example 113, N-((6-amino-2,4-dimethylpyridin-3-yl)methyl)-2-((2-methylquinolin-6-yl)methyl)isonicotinamide]",≤ 100
4,"Cc1ccc2ncc(Cc3cc(C(=O)NCc4ccc5c(N)nccc5c4)ccn3)cc2c1 [Example 115, N-((1-aminoisoquinolin-6-yl)methyl)-2-((6-methylquinolin-3-yl)methyl)isonicotinamide]",≤ 100
5,"Cc1cnc2ccc(Cc3cc(C(=O)NCc4ccc5c(N)nccc5c4)ccn3)cc2c1 [Example 142, N-((1-aminoisoquinolin-6-yl)methyl)-2-((3-methylquinolin-6-yl)methyl)isonicotinamide]",≤ 100
6,"Cc1nc(N)ccc1CNC(=O)c1ccnc(Cc2cc3cc(Cl)cnc3cn2)c1 [Example 149, N-((6-amino-2-methylpyridin-3-yl)methyl)-2-((3-chloro-1,7-naphthyridin-6-yl)methyl)isonicotinamide]",≤ 100
7,"Cc1cc2c(N)nccc2cc1CNC(=O)c1ccnc(Cc2ccc3ncc(C(F)(F)F)cc3c2)c1 [Example 183, N-((1-amino-7-methylisoquinolin-6-yl)methyl)-2-((3-(trifluoromethyl)quinolin-6-yl)methyl)isonicotinamide]",≤ 100
8,"Cc1cc(N)nc(C)c1CNC(=O)c1cc(CO)nc(Cc2ccc3ncc(Cl)cc3c2)c1 [Example 212, N-((6-amino-2,4-dimethylpyridin-3-yl)methyl)-2-((3-chloroquinolin-6-yl)methyl)-6-(hydroxymethyl)isonicotinamide]",≤ 100
